Data as given in PubChem BioAssay (NCI).
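Compound exposure: 48 hours, 5 concentrations, 96-well plates. Abbreviation: GI50, concentration required for 50% inhibition of growth. TGI: total growth inhibition.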

Tests used:
Experiment in all cases: inhibition of tumour cell growth, NCI panel, 48 h
786-0 renal = tested on: 786-0 renal
A498 renal = tested on: A498 renal
A549 NSCLC = tested on: A549 NSCLC
ACHN renal = tested on: ACHN renal
BT-549 breast = tested on: BT-549 breast
CAKI-1 renal = tested on: CAKI-1 renal
CCRF-CEM leukemia = tested on: CCRF-CEM leukemia
COLO 205 colon = tested on: COLO 205 colon
DU-145 prostate = tested on: DU-145 prostate
EKVX NSCLC = tested on: EKVX NSCLC
HCC-2998 colon = tested on: HCC-2998 colon
HCT-116 colon = tested on: HCT-116 colon
HCT-15 colon = tested on: HCT-15 colon
HL-60(TB) leukemia = tested on: HL-60(TB) leukemia
HOP-62 NSCLC = tested on: HOP-62 NSCLC
HOP-92 NSCLC = tested on: HOP-92 NSCLC
HS 578T breast = tested on: HS 578T breast
HT29 colon = tested on: HT29 colon
IGROV1 ovarian = tested on: IGROV1 ovarian
K-562 leukemia = tested on: K-562 leukemia
KM12 colon = tested on: KM12 colon
LOX IMVI melanoma = tested on: LOX IMVI melanoma
M14 melanoma = tested on: M14 melanoma
MALME-3M melanoma = tested on: MALME-3M melanoma
MCF7 breast = tested on: MCF7 breast
MDA-MB-231 breast = tested on: MDA-MB-231 breast
MDA-MB-435 = tested on: MDA-MB-435
MOLT-4 leukemia = tested on: MOLT-4 leukemia
NCI-H226 lung = tested on: NCI-H226 lung
NCI-H23 lung = tested on: NCI-H23 lung
NCI-H460 lung = tested on: NCI-H460 lung
NCI-H522 lung = tested on: NCI-H522 lung
NCI/ADR-RES ovarian = tested on: NCI/ADR-RES ovarian
OVCAR-3 ovarian = tested on: OVCAR-3 ovarian
OVCAR-4 ovarian = tested on: OVCAR-4 ovarian
OVCAR-5 ovarian = tested on: OVCAR-5 ovarian
OVCAR-8 ovarian = tested on: OVCAR-8 ovarian
PC-3 prostate = tested on: PC-3 prostate
RPMI-8226 leukemia = tested on: RPMI-8226 leukemia
RXF 393 renal = tested on: RXF 393 renal
SF-268 CNS = tested on: SF-268 CNS
SF-295 CNS = tested on: SF-295 CNS
SF-539 CNS = tested on: SF-539 CNS
SK-MEL-2 melanoma = tested on: SK-MEL-2 melanoma
SK-MEL-28 melanoma = tested on: SK-MEL-28 melanoma
SK-MEL-5 melanoma = tested on: SK-MEL-5 melanoma
SK-OV-3 ovarian = tested on: SK-OV-3 ovarian
SN12C renal = tested on: SN12C renal
SNB-19 CNS = tested on: SNB-19 CNS
SNB-75 CNS = tested on: SNB-75 CNS
SR leukemia = tested on: SR leukemia
SW-620 colon = tested on: SW-620 colon
T-47D breast = tested on: T-47D breast
TK-10 renal = tested on: TK-10 renal
U251 CNS = tested on: U251 CNS
UACC-257 melanoma = tested on: UACC-257 melanoma
UACC-62 melanoma = tested on: UACC-62 melanoma
UO-31 renal = tested on: UO-31 renal

How did the GI50 (786-0 renal) turn out when CNC(=O)NCC1OC(n2cnc3c(NC(=O)Nc4ccccc4)ncnc32)C(O[Si](C)(C)C(C)(C)C)C1CC(=O)N(C)OC (stereo unspecified) was run?
Its GI50 is 7.06 µM.

What about the TGI (786-0 renal) of the same compound?
The TGI was greater than 100 µM.

What about the GI50 (A498 renal) of the same compound?
The GI50 was 6.06 µM.

And the TGI (A498 renal)?
Its TGI is greater than 63.5 µM.

And the GI50 (A549 NSCLC)?
Its GI50 is 5.88 µM.

And the TGI (A549 NSCLC)?
Its TGI is greater than 100 µM.

And the GI50 (ACHN renal)?
The GI50 was 7.87 µM.

And the TGI (ACHN renal)?
Its TGI is greater than 100 µM.

What about the GI50 (BT-549 breast) of the same compound?
Its GI50 is 9.58 µM.

What about the TGI (BT-549 breast) of the same compound?
Its TGI is greater than 100 µM.

What about the GI50 (CAKI-1 renal) of the same compound?
The GI50 was 53.8 µM.

And the TGI (CAKI-1 renal)?
The TGI was greater than 100 µM.

What about the GI50 (CCRF-CEM leukemia) of the same compound?
Its GI50 is 6.37 µM.

And the TGI (CCRF-CEM leukemia)?
Its TGI is greater than 100 µM.

What about the GI50 (COLO 205 colon) of the same compound?
The GI50 was 12.3 µM.

What about the TGI (COLO 205 colon) of the same compound?
The TGI was greater than 100 µM.

And the GI50 (DU-145 prostate)?
Its GI50 is 14.7 µM.

And the TGI (DU-145 prostate)?
Its TGI is greater than 100 µM.

And the GI50 (EKVX NSCLC)?
Its GI50 is 12.3 µM.

And the TGI (EKVX NSCLC)?
Its TGI is greater than 100 µM.

What about the GI50 (HCC-2998 colon) of the same compound?
Its GI50 is 30.6 µM.

And the TGI (HCC-2998 colon)?
The TGI was greater than 100 µM.

And the GI50 (HCT-116 colon)?
Its GI50 is 3.95 µM.

And the TGI (HCT-116 colon)?
Its TGI is greater than 100 µM.

And the GI50 (HCT-15 colon)?
Its GI50 is 4.8 µM.

What about the TGI (HCT-15 colon) of the same compound?
The TGI was greater than 100 µM.

What about the GI50 (HL-60(TB) leukemia) of the same compound?
The GI50 was 1.69 µM.

And the TGI (HL-60(TB) leukemia)?
The TGI was 4.23 µM.

What about the GI50 (HOP-62 NSCLC) of the same compound?
Its GI50 is 22 µM.

What about the TGI (HOP-62 NSCLC) of the same compound?
The TGI was greater than 100 µM.

And the GI50 (HOP-92 NSCLC)?
The GI50 was 4.33 µM.

And the TGI (HOP-92 NSCLC)?
The TGI was greater than 49.3 µM.

And the GI50 (HS 578T breast)?
The GI50 was 7.39 µM.

What about the TGI (HS 578T breast) of the same compound?
Its TGI is greater than 100 µM.

What about the GI50 (HT29 colon) of the same compound?
The GI50 was 4.12 µM.

What about the TGI (HT29 colon) of the same compound?
The TGI was greater than 100 µM.

And the GI50 (IGROV1 ovarian)?
Its GI50 is 4 µM.

And the TGI (IGROV1 ovarian)?
The TGI was greater than 81.1 µM.

And the GI50 (K-562 leukemia)?
Its GI50 is 3.12 µM.

What about the TGI (K-562 leukemia) of the same compound?
Its TGI is greater than 100 µM.

And the GI50 (KM12 colon)?
The GI50 was 10.6 µM.

What about the TGI (KM12 colon) of the same compound?
Its TGI is greater than 100 µM.

And the GI50 (LOX IMVI melanoma)?
Its GI50 is 5.12 µM.

What about the TGI (LOX IMVI melanoma) of the same compound?
Its TGI is greater than 100 µM.

What about the GI50 (M14 melanoma) of the same compound?
The GI50 was 8.36 µM.

And the TGI (M14 melanoma)?
The TGI was greater than 100 µM.

What about the GI50 (MALME-3M melanoma) of the same compound?
The GI50 was 7.51 µM.

What about the TGI (MALME-3M melanoma) of the same compound?
Its TGI is greater than 100 µM.

And the GI50 (MCF7 breast)?
Its GI50 is 4.11 µM.

What about the TGI (MCF7 breast) of the same compound?
The TGI was greater than 100 µM.

And the GI50 (MDA-MB-231 breast)?
The GI50 was 8.47 µM.

What about the TGI (MDA-MB-231 breast) of the same compound?
The TGI was greater than 100 µM.

And the GI50 (MDA-MB-435)?
Its GI50 is 5.66 µM.

And the TGI (MDA-MB-435)?
Its TGI is greater than 100 µM.

What about the GI50 (MOLT-4 leukemia) of the same compound?
Its GI50 is 2.23 µM.

And the TGI (MOLT-4 leukemia)?
The TGI was 9.36 µM.

And the GI50 (NCI-H226 lung)?
Its GI50 is 15.8 µM.

And the TGI (NCI-H226 lung)?
Its TGI is greater than 100 µM.

And the GI50 (NCI-H23 lung)?
Its GI50 is 23.6 µM.

And the TGI (NCI-H23 lung)?
Its TGI is greater than 100 µM.

And the GI50 (NCI-H460 lung)?
The GI50 was 5.32 µM.

And the TGI (NCI-H460 lung)?
The TGI was greater than 100 µM.

And the GI50 (NCI-H522 lung)?
Its GI50 is 7.76 µM.

And the TGI (NCI-H522 lung)?
Its TGI is greater than 100 µM.

What about the GI50 (NCI/ADR-RES ovarian) of the same compound?
Its GI50 is greater than 100 µM.

And the TGI (NCI/ADR-RES ovarian)?
Its TGI is greater than 100 µM.

What about the GI50 (OVCAR-3 ovarian) of the same compound?
Its GI50 is 5.84 µM.

And the TGI (OVCAR-3 ovarian)?
Its TGI is greater than 100 µM.

What about the GI50 (OVCAR-4 ovarian) of the same compound?
The GI50 was 16.6 µM.

And the TGI (OVCAR-4 ovarian)?
Its TGI is greater than 100 µM.

What about the GI50 (OVCAR-5 ovarian) of the same compound?
Its GI50 is 16.8 µM.

And the TGI (OVCAR-5 ovarian)?
The TGI was greater than 100 µM.

What about the GI50 (OVCAR-8 ovarian) of the same compound?
Its GI50 is 6.52 µM.

And the TGI (OVCAR-8 ovarian)?
Its TGI is greater than 100 µM.

And the GI50 (PC-3 prostate)?
The GI50 was 4.95 µM.

And the TGI (PC-3 prostate)?
The TGI was greater than 100 µM.

What about the GI50 (RPMI-8226 leukemia) of the same compound?
Its GI50 is 1.58 µM.

What about the TGI (RPMI-8226 leukemia) of the same compound?
Its TGI is 5.4 µM.

What about the GI50 (RXF 393 renal) of the same compound?
The GI50 was 4.02 µM.

And the TGI (RXF 393 renal)?
The TGI was 12.7 µM.

What about the GI50 (SF-268 CNS) of the same compound?
Its GI50 is 8.29 µM.

What about the TGI (SF-268 CNS) of the same compound?
Its TGI is greater than 100 µM.

And the GI50 (SF-295 CNS)?
The GI50 was 9.09 µM.

What about the TGI (SF-295 CNS) of the same compound?
Its TGI is greater than 100 µM.

And the GI50 (SF-539 CNS)?
Its GI50 is 8.21 µM.

What about the TGI (SF-539 CNS) of the same compound?
The TGI was greater than 100 µM.

What about the GI50 (SK-MEL-2 melanoma) of the same compound?
The GI50 was 8.08 µM.

What about the TGI (SK-MEL-2 melanoma) of the same compound?
The TGI was greater than 91.2 µM.

And the GI50 (SK-MEL-28 melanoma)?
The GI50 was 5.21 µM.

And the TGI (SK-MEL-28 melanoma)?
The TGI was greater than 100 µM.

What about the GI50 (SK-MEL-5 melanoma) of the same compound?
The GI50 was 4.92 µM.

And the TGI (SK-MEL-5 melanoma)?
The TGI was greater than 100 µM.

And the GI50 (SK-OV-3 ovarian)?
The GI50 was greater than 72.6 µM.

What about the TGI (SK-OV-3 ovarian) of the same compound?
The TGI was greater than 100 µM.

What about the GI50 (SN12C renal) of the same compound?
The GI50 was 17.1 µM.

What about the TGI (SN12C renal) of the same compound?
Its TGI is greater than 100 µM.

And the GI50 (SNB-19 CNS)?
The GI50 was greater than 23 µM.

And the TGI (SNB-19 CNS)?
Its TGI is greater than 100 µM.

What about the GI50 (SNB-75 CNS) of the same compound?
Its GI50 is 6.32 µM.

What about the TGI (SNB-75 CNS) of the same compound?
Its TGI is greater than 100 µM.

And the GI50 (SR leukemia)?
The GI50 was 1.63 µM.

What about the TGI (SR leukemia) of the same compound?
The TGI was 4.06 µM.

And the GI50 (SW-620 colon)?
Its GI50 is greater than 100 µM.

What about the TGI (SW-620 colon) of the same compound?
The TGI was greater than 100 µM.

What about the GI50 (T-47D breast) of the same compound?
Its GI50 is 7.41 µM.

What about the TGI (T-47D breast) of the same compound?
The TGI was greater than 100 µM.

And the GI50 (TK-10 renal)?
Its GI50 is 9.17 µM.

What about the TGI (TK-10 renal) of the same compound?
Its TGI is greater than 100 µM.

And the GI50 (U251 CNS)?
Its GI50 is 4.85 µM.

And the TGI (U251 CNS)?
Its TGI is greater than 100 µM.

And the GI50 (UACC-257 melanoma)?
The GI50 was 8.25 µM.

What about the TGI (UACC-257 melanoma) of the same compound?
Its TGI is greater than 100 µM.

And the GI50 (UACC-62 melanoma)?
Its GI50 is 41.9 µM.

And the TGI (UACC-62 melanoma)?
The TGI was greater than 100 µM.

What about the GI50 (UO-31 renal) of the same compound?
The GI50 was 5.7 µM.

And the TGI (UO-31 renal)?
The TGI was greater than 100 µM.
